Data on 39 compounds can be found in patent US20090221559A1 (priority 2005, published 2009).

pEC50, pIC50: −log10 of the molar value. Like-named read-outs stand apart in the source and are kept apart here.

Assay [1] deals with T1, HCV NS5B polymerase (His-tagged, C-terminal 21 amino acid deleted NS5B, HC-J4) (Hepatitis C virus genotype 1b, UniProt O92972).
T1 construct: The cDNA encoding NS5B amino acid 1-570 (HC-J4, genotype 1b); His tag (His6, from pET-21b) (C); made in house; host or cells: E. coli BL21 (DE3)
The experiment in a line: NS5b polymerase assay (biochemical RdRp assay, 3H-GTP incorporation, SPA beads). Set-up: species or system HCV genotype 1b. As to conditions: 3H-GTP incorporation, 2 h at 25° C. Put shortly:
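His-tagged C-terminal-21-aa-deleted NS5B (genotype 1b, HC-J4) at 200 nM was preincubated 15 min at RT with compound on 5′-biotinylated oligo(rG13)/poly(rC) template/primer before NTPs. Reaction with 600 nM GTP plus 0.1 μCi 3H-GTP and 5 mM MgCl2 in Tris pH 7.5 ran 2 h at 25 °C. Stopped with EDTA/SPA beads for incorporation counting.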

Assay [2] relates to HCV replicon RNA replication in Huh-7 luc/neo (Huh-Luc) cells. The experiment in a line: HCV replicon assay (stable replicon cell reporter assay, luciferase read-out). The class given is cell-based, HCV type 1b. An outline of the steps: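 Huh-7 cells stably carry a bicistronic HCV 1b NS3-NS5B subgenomic replicon with firefly luciferase and neo markers. Cells were plated with compound across a concentration range and incubated three days. Replication was measured as luciferase activity to give dose-response curves.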
Background: In antiviral work, replicon cells carry a viral genome segment that copies itself.

[3] abbreviates: NS5B Polymerase Assay IC50, 200 nM enzyme.
Setting [4] is: Hepatitis C virus, Huh-7, 72 h, read-out: Replicon Assay EC50, Huh-Luc cells, three days incubation, luciferase activity.
Where [5] appears, read: 200 nM enzyme, read-out: NS5B Polymerase Assay IC50.
Where [6] appears, read: Huh-Luc cells, three days incubation, luciferase activity, read-out: Replicon Assay EC50.

T1 sequence (O92972 2417-3000, looked up, stated change not applied): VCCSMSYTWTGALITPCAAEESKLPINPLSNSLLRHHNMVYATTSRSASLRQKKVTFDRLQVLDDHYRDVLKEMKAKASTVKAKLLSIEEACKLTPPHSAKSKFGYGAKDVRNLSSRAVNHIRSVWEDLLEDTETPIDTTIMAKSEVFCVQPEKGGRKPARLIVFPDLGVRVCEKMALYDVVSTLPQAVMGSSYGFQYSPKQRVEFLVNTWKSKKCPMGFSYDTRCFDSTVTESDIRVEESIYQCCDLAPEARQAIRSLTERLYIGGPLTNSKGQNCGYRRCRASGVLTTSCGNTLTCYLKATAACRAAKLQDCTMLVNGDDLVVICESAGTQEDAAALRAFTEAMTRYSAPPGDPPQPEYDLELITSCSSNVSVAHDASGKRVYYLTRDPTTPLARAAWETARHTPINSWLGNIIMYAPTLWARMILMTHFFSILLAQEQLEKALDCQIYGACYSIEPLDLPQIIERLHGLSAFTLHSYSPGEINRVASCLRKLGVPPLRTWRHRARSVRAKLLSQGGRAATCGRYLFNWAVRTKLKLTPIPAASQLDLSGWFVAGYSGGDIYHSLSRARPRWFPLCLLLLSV

As to `CC(=O)N1c2ccccc2NC2=C(C(=O)CC(C)(C)C2)C1CC1CC=C(C)C1(C)C` (stereo not drawn) [compound 246], the pIC50 in assay [1] (setting [3]) is under 4.37. In addition, the pEC50 in assay [2] (setting [4]) is 5.73.
`CC1(C)CC(=O)C2=C(C1)Nc1ccccc1N(C(=O)Cc1ccc(Cl)cc1)C2c1cccnc1` (stereo not drawn) [compound 247] had a pIC50 in assay [1] (setting [3]) of under 4.48. Besides, in assay [2] (setting [4]), the pEC50 was 4.76.
The like results for `CC(C)CC(=O)N1c2ccccc2NC2=C(C(=O)CC(C)(C)C2)C1c1cccs1` (stereo not drawn) [compound 248] were, in that order, under 4.37 and 5.14.
In the same order, the values of `CCC(=O)N1c2ccccc2NC2=C(C(=O)CC(C)(C)C2)C1c1ccc(Br)s1` (stereo not drawn) [compound 249] are under 4.37 and 5.44.
In the same order, the values of `CC(=O)N1c2ccccc2NC2=C(C(=O)CC(C)(C)C2)C1c1ccc(-c2cccc([N+](=O)[O-])c2)o1` (stereo not drawn) [compound 250] are under 4.37 and 5.10.
For the compound `CC1(C)CC(=O)C2=C(C1)Nc1ccccc1N(C(=O)Cc1ccc(F)cc1)C2c1cccs1` (stereo not drawn) [compound 251], the pIC50 in assay [1] (setting [3]) was under 4.37. Further, in assay [2] (setting [4]), the negative-log EC50 (pEC50) was 5.01.
Regarding `CC1(C)CC(=O)C2=C(C1)Nc1ccccc1N(C(=O)C1CC1)C2c1cccs1` (stereo not drawn) [compound 252], in assay [1] (setting [3]), the negative logarithm of the IC50 (pIC50) was under 4.37. Besides, the pEC50 in assay [2] (setting [4]) is 5.32.
The compound `CC1(C)CC(=O)C2=C(C1)Nc1ccccc1N(C(=O)Cc1ccc(Cl)cc1)C2c1ccco1` (stereo not drawn) [compound 253] showed a pIC50 in assay [1] (setting [3]) of under 4.37. Also, the pEC50 in assay [2] (setting [4]) was 5.06.
Take `CC1(C)CC(=O)C2=C(C1)Nc1ccccc1N(C(=O)c1ccc(Br)cc1)C2c1ccco1` (stereo not drawn) [compound 254]: the pIC50 in assay [1] (setting [3]) is under 4.37. The negative logarithm of the EC50 (pEC50) in assay [2] (setting [4]) is 4.82.
In the same order, the values of `CCCCC(=O)N1c2ccccc2NC2=C(C(=O)CC(C)(C)C2)C1c1ccc(-c2cccc([N+](=O)[O-])c2)o1` (stereo not drawn) [compound 255] are under 4.37 and 4.66.
The like results for `CC1(C)CC(=O)C2=C(C1)Nc1ccccc1N(C(=O)C(F)(F)F)C2c1ccc(-c2ccc([N+](=O)[O-])cc2)o1` (stereo not drawn) [compound 257] were, in that order, under 4.37 and 4.65.
In the case of `CC(=O)N1c2ccccc2NC2=C(C(=O)CC(C)(C)C2)C1c1cccnc1` (stereo not drawn) [compound 258], the pIC50 in assay [1] (setting [3]) is under 4.37. Besides, the negative-log EC50 (pEC50) in assay [2] (setting [4]) was under 4.49.
On to `CC(C)C(=O)N1c2ccccc2NC2=C(C(=O)CC(C)(C)C2)C1c1cccnc1` (stereo not drawn) [compound 259], for which, in assay [1] (setting [3]), the pIC50 is 4.53. The negative logarithm of the EC50 (pEC50) in assay [2] (setting [4]) is under 4.48.
Regarding `Cn1cccc1C1C2=C(CC(C)(C)CC2=O)Nc2ccccc2N1C(=O)C(F)(F)F` (stereo not drawn) [compound 260], in assay [1] (setting [3]), the pIC50 was under 4.37. Besides, the pEC50 in assay [2] (setting [4]) is 4.65.
Regarding `CCC(=O)N1c2ccc(C(=O)c3ccccc3)cc2NC2=C(C(=O)CC(C)(C)C2)C1c1ccco1` (stereo not drawn) [compound 261], the negative logarithm of the IC50 (pIC50) in assay [1] (setting [5]) was under 4.37. The pEC50 in assay [2] (setting [6]) is 5.03.
The compound `CC(C)C(=O)N1c2ccccc2NC2=C(C(=O)CC(C)(C)C2)C1c1ccc(Br)s1` (stereo not drawn) [compound 262] showed a negative logarithm of the IC50 (pIC50) in assay [1] (setting [3]) of under 4.37. For the same compound, in assay [2] (setting [4]), the negative logarithm of the EC50 (pEC50) is 5.26.
For the compound `CCCCC(=O)N1c2ccccc2NC2=C(C(=O)CC(C)(C)C2)C1c1cccs1` (stereo not drawn) [compound 263], the pIC50 in assay [1] (setting [3]) was under 4.37. Besides, the pEC50 in assay [2] (setting [4]) is 4.98.
`CC1(C)CC(=O)C2=C(C1)Nc1ccccc1N(C(=O)c1ccccc1)C2/C=C/c1ccccc1` (stereo not drawn) [compound 264]: in assay [1] (setting [5]), the negative logarithm of the IC50 (pIC50) was under 4.37. In assay [2] (setting [6]), the pEC50 was 5.05.
Consider `CCCCC(=O)N1c2ccccc2NC2=C(C(=O)CC(C)(C)C2)C1c1ccc2c(c1)OCO2` (stereo not drawn) [compound 265], for which the negative logarithm of the IC50 (pIC50) in assay [1] (setting [3]) is under 4.37. Further, in assay [2] (setting [4]), the negative-log EC50 (pEC50) was 4.95.
The like results for `CC1(C)CC(=O)C2=C(C1)Nc1ccccc1N(C(=O)C(F)(F)F)C2c1ccc2c(c1)OCO2` (stereo not drawn) [compound 266] were, in that order, under 4.37 and 4.62.
In assay [1] (setting [3]), `CC1(C)CC(=O)C2=C(C1)Nc1ccccc1N(C(=O)C(F)(F)F)C2c1cccs1` (stereo not drawn) [compound 267] had a pIC50 of under 4.37. Also, in assay [2] (setting [4]), the pEC50 is 5.03.
Consider `CC1(C)CC(=O)C2=C(C1)Nc1ccccc1N(C(=O)Cc1ccccc1)C2c1cc2c(cc1Br)OCO2` (stereo not drawn) [compound 268], for which, in assay [1] (setting [3]), the pIC50 was under 4.37. In assay [2] (setting [4]), the negative logarithm of the EC50 (pEC50) was 5.04.
The compound `CC1(C)CC(=O)C2=C(C1)Nc1ccccc1N(C(=O)c1ccccc1)C2c1cccs1` (stereo not drawn) [compound 269] had a negative logarithm of the IC50 (pIC50) in assay [1] (setting [3]) of under 4.48. In addition, the pEC50 in assay [2] (setting [4]) was 4.71.
Take `CC(C)CC(=O)N1c2ccccc2NC2=C(C(=O)CC(C)(C)C2)C1c1cccnc1` (stereo not drawn) [compound 270]: the pIC50 in assay [1] (setting [3]) was under 4.48. The pEC50 in assay [2] (setting [4]) is 4.59.
In the same order, the values of `Cc1ccc(C2C3=C(CC(C)(C)CC3=O)Nc3ccccc3N2C(=O)Cc2ccccc2)o1` (stereo not drawn) [compound 271] are under 4.48 and 4.64.
The compound `CC1(C)CC(=O)C2=C(C1)Nc1ccccc1N(C(=O)Cc1ccccc1)C2c1ccc2c(c1)OCO2` (stereo not drawn) [compound 275] showed a pIC50 in assay [1] (setting [3]) of under 4.37. For the same compound, the pEC50 in assay [2] (setting [4]) is 5.00.
In assay [1] (setting [3]), `CC1(C)CC(=O)C2=C(C1)Nc1ccccc1N(C(=O)C(F)(F)F)C2c1ccco1` (stereo not drawn) [compound 276] had a pIC50 of under 4.37. The pEC50 in assay [2] (setting [4]) is under 4.49.
In assay [1] (setting [3]), `CC(=O)N1c2ccccc2NC2=C(C(=O)CC(C)(C)C2)C1c1cc2c(cc1Br)OCO2` (stereo not drawn) [compound 277] showed a negative-log IC50 (pIC50) of under 4.37. For the same compound, the pEC50 in assay [2] (setting [4]) was 4.87.
In the same order, the values of `CC1(C)CC(=O)C2=C(C1)Nc1ccccc1N(C(=O)C(F)(F)F)C2c1ccc(-c2ccc(Br)cc2)o1` (stereo not drawn) [compound 278] are under 4.37 and 4.88.
In the same order, the values of `CC(=O)N1c2ccccc2NC2=C(C(=O)CC(C)(C)C2)C1c1ccc(-c2ccc([N+](=O)[O-])cc2Cl)o1` (stereo not drawn) [compound 279] are under 4.37 and 5.03.
`CC(=O)N1c2ccccc2NC2=C(C(=O)CC(C)(C)C2)C1c1ccc(-c2cccc(C(=O)O)c2)o1` (stereo not drawn) [compound 280] had a pIC50 in assay [1] (setting [3]) of under 4.37. In assay [2] (setting [4]), the pEC50 was under 4.49.
The like results for `CC(=O)N1c2ccccc2NC2=C(C(=O)CC(C)(C)C2)C1c1ccccn1` (stereo not drawn) [compound 281] were, in that order, under 4.37 and under 4.49.
The like results for `CC(=O)N1c2ccccc2NC2=C(C(=O)CC(C)(C)C2)C1c1ccc(Br)s1` (stereo not drawn) [compound 282] were, in that order, under 4.37 and 4.77.
Turning to `CC(=O)N1c2ccccc2NC2=C(C(=O)CC(C)(C)C2)C1c1ccc(C)o1` (stereo not drawn) [compound 283], in assay [1] (setting [3]), the negative-log IC50 (pIC50) was under 4.37. Also, the negative-log EC50 (pEC50) in assay [2] (setting [4]) is under 4.49.
In turn, `CC(=O)N1c2ccccc2NC2=C(C(=O)CC(C)(C)C2)C1c1ccc2c(c1)OCO2` (stereo not drawn) [compound 284] gave a negative logarithm of the IC50 (pIC50) in assay [1] (setting [3]) of under 4.37. In addition, in assay [2] (setting [4]), the pEC50 was 4.51.
As to `O=C1CC(c2ccco2)CC2=C1C(c1cccc([N+](=O)[O-])c1)N(C(=O)c1ccccc1)c1ccccc1N2` (stereo not drawn) [compound 286], the pIC50 in assay [1] (setting [5]) was under 4.37. Further, the pEC50 in assay [2] (setting [6]) was 4.72.
Turning to `COc1ccc(C2C3=C(CC(c4cccs4)CC3=O)Nc3ccccc3N2C(=O)Nc2ccc(Cl)c(Cl)c2)cc1` (stereo not drawn) [compound 287], the negative logarithm of the IC50 (pIC50) in assay [1] (setting [3]) was under 4.48. The negative-log EC50 (pEC50) in assay [2] (setting [4]) is 5.30.
As to `CCC(=O)N1c2ccccc2NC2=C(C(=O)CC(c3ccco3)C2)C1c1cccc([N+](=O)[O-])c1` (stereo not drawn) [compound 288], the pIC50 in assay [1] (setting [5]) was under 4.37. Besides, the pEC50 in assay [2] (setting [6]) was 4.60.
In turn, `CCCCCC(=O)N1c2ccccc2NC2=C(C(=O)CC(c3ccco3)C2)C1c1ccc(Cl)cc1` (stereo not drawn) [compound 289] had a pIC50 in assay [1] (setting [3]) of under 4.48. The pEC50 in assay [2] (setting [4]) is 4.81.

What is called pIC50 is the IC50 on a negative log10 scale, so that one unit is a factor of ten. One may read the pEC50 as −log10 of the EC50, conventionally taken in molar units.
